Columns and labels:
[1] = complexation properties with ^213Bi; format: physicochemical; settings: non-functionalised chelating agents tested
Experimental: (§1) Different non-functionalised chelating agents (commercially available or readily synthesised in the laboratory) bearing aminocarboxylate groups (EDTA, DTPA, DOTA, PEPA, and HEHA) or aminophosphonate groups (EDTMP) were tested for their complexation properties with ^225Ac and ^213Bi. […] Polyaza polycarboxylic macrocycles are known to form thermodynamically stable complexes with large metal ions such as actinides and lanthanides.

[2] = complexation properties with ^225Ac; format: physicochemical; settings: compared with non-functionalised chelating agents EDTA, DTPA, DOTA, PEPA, HEHA, EDTMP
Experimental: as §1

O=C(O)CN1CCN(CC(=O)O)CCN(CC(=O)O)CCN(CC(=O)O)CCN(CC(=O)O)CCN(CC(=O)O)CC1 [HEHA, 1,4,7,10,13,16-hexacarboxylmethyl-1,4,7,10,13,16-hexaazacyclooctadecane]
chelation of ^213Bi [1]: good chelating agent
^225Ac complexation [2]: best candidate

From patent publication US7132513B2, “Bifunctional chelating agent” (European Community, priority 2000, dated 2006)
